Experimental data taken from ChEMBL document CHEMBL5108009, “Positron Emission Tomography (PET) Imaging Tracers for Serotonin Receptors” (J Med Chem, 2022).

Assays:
[1] = biological target: T1, 5-hydroxytryptamine receptor 7 (Homo sapiens, UniProt P34969)
[2] = biological target: 5-hydroxytryptamine receptor 2B (Homo sapiens, UniProt P41595)
[3] = biological target: 5-hydroxytryptamine receptor 1B (Homo sapiens, UniProt P28222)
[4] = biological target: 5-hydroxytryptamine receptor 5A (Homo sapiens, UniProt P47898); experiment: Binding affinity to 5-HT5A receptor (unknown origin) assessed as inhibition constant
[5] = biological target: T2, 5-hydroxytryptamine receptor 2C (Homo sapiens, UniProt P28335)
T2 sequence (P28335 whole entry): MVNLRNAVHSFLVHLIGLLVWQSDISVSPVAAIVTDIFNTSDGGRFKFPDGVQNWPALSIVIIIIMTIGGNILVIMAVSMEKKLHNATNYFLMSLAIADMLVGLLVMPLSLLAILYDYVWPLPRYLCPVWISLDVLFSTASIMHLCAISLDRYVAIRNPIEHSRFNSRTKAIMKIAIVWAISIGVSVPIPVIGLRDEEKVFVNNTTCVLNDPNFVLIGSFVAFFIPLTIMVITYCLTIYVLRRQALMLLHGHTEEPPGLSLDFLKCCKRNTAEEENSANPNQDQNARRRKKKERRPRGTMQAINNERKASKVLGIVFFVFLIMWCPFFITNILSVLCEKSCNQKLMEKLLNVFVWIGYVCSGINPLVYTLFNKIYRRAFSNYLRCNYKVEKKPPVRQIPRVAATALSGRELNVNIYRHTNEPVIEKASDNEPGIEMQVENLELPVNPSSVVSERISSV

[6] = biological target: 5-hydroxytryptamine receptor 1D (Homo sapiens, UniProt P28221); experiment: Binding affinity to 5-HT1D (unknown origin) assessed as inhibition constant
[7] = biological target: T3, 5-hydroxytryptamine receptor 1A (Homo sapiens, UniProt P08908)
T3 sequence (P08908 whole entry): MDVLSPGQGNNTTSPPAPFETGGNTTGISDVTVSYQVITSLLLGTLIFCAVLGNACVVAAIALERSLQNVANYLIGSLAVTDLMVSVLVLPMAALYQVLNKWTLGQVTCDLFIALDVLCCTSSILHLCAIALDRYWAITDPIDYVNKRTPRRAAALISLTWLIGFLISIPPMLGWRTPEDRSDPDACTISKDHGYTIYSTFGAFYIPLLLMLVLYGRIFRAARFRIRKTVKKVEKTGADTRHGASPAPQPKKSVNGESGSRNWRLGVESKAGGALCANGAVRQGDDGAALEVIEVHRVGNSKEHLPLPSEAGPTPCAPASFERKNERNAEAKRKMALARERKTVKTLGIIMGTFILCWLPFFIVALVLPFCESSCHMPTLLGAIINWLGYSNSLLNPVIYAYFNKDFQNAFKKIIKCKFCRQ

[8] = biological target: T3, 5-hydroxytryptamine receptor 1A; remark: listed apart in the source
[9] = biological target: T3, 5-hydroxytryptamine receptor 1A; experiment: Binding affinity to 5-HT1A receptor in human HeLa cell membrane assessed as inhibition constant by Packard top-counter analysis; assay type: cell membranes
[10] = Binding affinity to pig 5-HT1B receptor (unknown origin) assessed as inhibition constant
[11] = Ratio of drug uptake in rat temporal cortex to cerebellum by measuring radioactivity at 10 mins postinjection; assay type: ADME, organism-based; settings: in vivo
[12] = Ratio of drug uptake in rat temporal cortex to cerebellum by measuring radioactivity at 20 mins postinjection; assay type: ADME, organism-based; settings: in vivo
[13] = biological target: 5-hydroxytryptamine receptor 2A (Homo sapiens, UniProt P28223)
[14] = biological target: T4, Alpha-1A adrenergic receptor (Homo sapiens, UniProt P35348); experiment: Binding affinity to alpha 1A adrenergic receptor (unknown origin) assessed as inhibition constant
T4 sequence (P35348 whole entry): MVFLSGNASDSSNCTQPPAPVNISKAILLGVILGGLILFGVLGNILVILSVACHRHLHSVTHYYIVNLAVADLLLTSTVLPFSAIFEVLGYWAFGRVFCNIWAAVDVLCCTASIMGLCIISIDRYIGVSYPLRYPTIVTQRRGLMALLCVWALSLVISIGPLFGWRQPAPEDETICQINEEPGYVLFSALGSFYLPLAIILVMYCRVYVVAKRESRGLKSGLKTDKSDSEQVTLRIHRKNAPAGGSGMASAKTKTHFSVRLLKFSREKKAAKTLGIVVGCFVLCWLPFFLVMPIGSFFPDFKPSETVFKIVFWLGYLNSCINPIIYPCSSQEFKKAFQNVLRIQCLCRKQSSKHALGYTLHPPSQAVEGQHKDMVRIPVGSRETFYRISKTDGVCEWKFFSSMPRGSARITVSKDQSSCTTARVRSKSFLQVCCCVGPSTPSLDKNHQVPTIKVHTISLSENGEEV

[15] = Drug uptake in cynomolgus monkey in brain administered IV measured at 7.5 mins relative to control; assay type: ADME, tissue-based, Macaca fascicularis; settings: in vivo, 0.125 h
[16] = biological target: T1, 5-hydroxytryptamine receptor 7; experiment: Binding affinity to human recombinant 5-HT7 receptor expressed in CHO cells assessed as inhibition constant; assay type: cell-based
[17] = Ratio of drug uptake in rhesus monkey temporal cortex to cerebellum assessed as non-displaceable binding potential; assay type: ADME, tissue-based, Macaca mulatta; settings: in vivo
[18] = Drug uptake in pig brain cortex assessed as non-displaceable binding potential; assay type: ADME, tissue-based, Sus scrofa; settings: in vivo
[19] = Ratio of drug uptake in rat hippocampus to cerebellum by measuring radioactivity at […], iv; assay type: ADME, tissue-based; settings: in vivo, dose 25-30 mCi

Sequence of 5-hydroxytryptamine receptor 2A (P28223 whole entry): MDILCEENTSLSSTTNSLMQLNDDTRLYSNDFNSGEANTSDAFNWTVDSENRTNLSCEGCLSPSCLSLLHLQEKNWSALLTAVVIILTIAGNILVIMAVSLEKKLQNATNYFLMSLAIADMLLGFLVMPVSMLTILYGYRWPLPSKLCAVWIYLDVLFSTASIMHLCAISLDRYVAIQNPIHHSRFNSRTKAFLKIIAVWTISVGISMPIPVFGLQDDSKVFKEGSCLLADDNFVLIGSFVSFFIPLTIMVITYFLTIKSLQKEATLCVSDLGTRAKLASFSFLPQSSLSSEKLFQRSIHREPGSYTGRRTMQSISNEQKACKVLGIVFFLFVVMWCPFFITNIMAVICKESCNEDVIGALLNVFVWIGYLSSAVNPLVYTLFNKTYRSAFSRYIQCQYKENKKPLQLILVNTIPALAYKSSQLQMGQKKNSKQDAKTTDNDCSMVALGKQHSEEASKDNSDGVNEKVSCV
T1 sequence (P34969 whole entry): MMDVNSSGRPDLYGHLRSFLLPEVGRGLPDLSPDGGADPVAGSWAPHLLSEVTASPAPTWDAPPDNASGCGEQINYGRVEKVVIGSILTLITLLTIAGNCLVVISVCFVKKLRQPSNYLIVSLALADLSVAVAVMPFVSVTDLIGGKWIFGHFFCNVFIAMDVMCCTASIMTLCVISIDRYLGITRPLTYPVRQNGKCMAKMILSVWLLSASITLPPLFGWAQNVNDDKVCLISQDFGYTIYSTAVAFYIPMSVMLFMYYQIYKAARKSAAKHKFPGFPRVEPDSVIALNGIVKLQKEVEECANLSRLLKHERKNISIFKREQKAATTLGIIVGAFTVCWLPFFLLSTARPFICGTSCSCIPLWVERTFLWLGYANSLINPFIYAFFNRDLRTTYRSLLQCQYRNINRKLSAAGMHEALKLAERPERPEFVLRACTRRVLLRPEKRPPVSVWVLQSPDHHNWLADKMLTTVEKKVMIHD
Sequence of 5-hydroxytryptamine receptor 2B (P41595 whole entry): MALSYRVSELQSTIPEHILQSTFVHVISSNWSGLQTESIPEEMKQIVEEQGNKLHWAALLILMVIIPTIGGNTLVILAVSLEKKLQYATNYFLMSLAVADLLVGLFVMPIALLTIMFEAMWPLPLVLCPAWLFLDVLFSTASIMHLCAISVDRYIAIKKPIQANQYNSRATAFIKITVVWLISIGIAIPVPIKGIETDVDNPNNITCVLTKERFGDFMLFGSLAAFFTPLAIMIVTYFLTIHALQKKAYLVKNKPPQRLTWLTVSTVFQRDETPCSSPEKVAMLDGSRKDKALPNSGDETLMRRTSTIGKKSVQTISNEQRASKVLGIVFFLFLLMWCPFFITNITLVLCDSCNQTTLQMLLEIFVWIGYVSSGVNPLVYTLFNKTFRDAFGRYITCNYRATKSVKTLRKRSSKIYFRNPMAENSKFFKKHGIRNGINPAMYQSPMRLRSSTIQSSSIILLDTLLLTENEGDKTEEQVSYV
Sequence of 5-hydroxytryptamine receptor 1D (P28221 whole entry): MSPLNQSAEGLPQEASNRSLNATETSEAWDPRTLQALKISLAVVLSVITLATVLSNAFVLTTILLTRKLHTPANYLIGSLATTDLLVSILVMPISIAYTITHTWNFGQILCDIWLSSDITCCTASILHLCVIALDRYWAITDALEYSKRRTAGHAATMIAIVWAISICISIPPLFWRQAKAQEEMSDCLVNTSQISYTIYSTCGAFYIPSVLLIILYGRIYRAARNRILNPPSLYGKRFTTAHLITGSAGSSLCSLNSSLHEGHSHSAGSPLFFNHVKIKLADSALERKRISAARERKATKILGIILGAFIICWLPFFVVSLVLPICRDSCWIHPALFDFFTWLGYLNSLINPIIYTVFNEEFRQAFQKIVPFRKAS
Sequence of 5-hydroxytryptamine receptor 1B (P28222 whole entry): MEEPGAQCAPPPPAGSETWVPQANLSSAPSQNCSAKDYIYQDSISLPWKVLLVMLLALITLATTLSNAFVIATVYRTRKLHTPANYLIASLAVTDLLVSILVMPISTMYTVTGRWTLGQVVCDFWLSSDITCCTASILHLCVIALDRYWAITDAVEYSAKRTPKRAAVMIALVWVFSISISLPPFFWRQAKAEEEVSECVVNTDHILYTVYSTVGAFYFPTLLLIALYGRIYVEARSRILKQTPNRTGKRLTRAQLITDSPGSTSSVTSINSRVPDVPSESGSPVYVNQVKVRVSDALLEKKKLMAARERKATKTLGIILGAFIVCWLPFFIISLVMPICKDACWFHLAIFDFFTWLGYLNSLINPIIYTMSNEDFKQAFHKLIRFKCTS
Sequence of 5-hydroxytryptamine receptor 5A (P47898 whole entry): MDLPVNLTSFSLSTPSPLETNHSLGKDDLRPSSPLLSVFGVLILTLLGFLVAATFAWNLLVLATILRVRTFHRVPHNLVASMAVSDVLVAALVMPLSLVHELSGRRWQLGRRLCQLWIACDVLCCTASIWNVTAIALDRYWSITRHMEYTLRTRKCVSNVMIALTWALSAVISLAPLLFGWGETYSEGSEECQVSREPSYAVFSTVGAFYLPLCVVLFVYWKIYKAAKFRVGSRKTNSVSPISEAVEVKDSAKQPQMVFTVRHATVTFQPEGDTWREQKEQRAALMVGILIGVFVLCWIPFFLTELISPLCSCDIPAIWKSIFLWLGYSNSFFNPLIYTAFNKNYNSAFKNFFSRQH

Q: For `CCC(=O)Nc1ccc2[nH]cc(C3CCN(C)CC3)c2n1`, which Ki [1] is on record?
A: Its Ki is > 300 nM.

Q: What about the Ki [2] of the same molecule?
A: The Ki was > 300 nM.

Q: What about the Ki [3] of the same molecule?
A: The Ki was > 300 nM.

Q: What about the Ki [4] of the same molecule?
A: The Ki was > 300 nM.

Q: And the Ki [5]?
A: The Ki was > 300 nM.

Q: What about the Ki [6] of the same molecule?
A: The Ki was > 300 nM.

Q: What about the Ki [7] of the same molecule?
A: Its Ki is > 300 nM.

Q: Which Ki [8] does the source give for `COc1ccccc1N1CCN(CCCCc2ccc3c(c2)oc(=O)n3C)CC1` here?
A: Its Ki is 0.04 nM.

Q: For `CC(C)c1cc(-c2ccc(F)c3ccccc23)nc(N)n1`, which Ki [2] is on record?
A: The Ki was 0.3 nM.

Q: For `COc1ccccc1N1CCN(CCN(C(=O)N2CCCCC2)c2cccc(Br)n2)CC1`, which Ki [9] is on record?
A: Its Ki is 0.31 nM.

Q: With `Cc1ccc(N2CCN([11CH3])CC2)c2nc(C(=O)Nc3ccc(N4CCOCC4)cc3)ccc12` as the molecule, how does the Ki [10] read?
A: Its Ki is 0.2 nM.

Q: Which Ratio [11] does the source give for `COc1ccccc1N1CCN(CCN(c2cccc(Br)n2)[11C](=O)N2CCCCC2)CC1` here?
A: Its Ratio is 1.9.

Q: And the Ratio [12]?
A: The Ratio was 3.

Q: With `COc1cc(Br)c(OC)c(CCNCc2cccc(F)c2)c1` as the molecule, how does the Ki [13] read?
A: The Ki was 2.7 nM.

Q: With `CN1CCN(c2cccc3c2C[C@@H](NC(=O)c2ccc(N4CCOCC4)cc2)CC3)CC1` as the molecule, how does the Ki [10] read?
A: The Ki was 0.46 nM.

Q: For `COC(=O)N1CCN(c2ccc(NC(=O)C3CCc4cc(F)cc(N5CCN([11CH3])CC5)c4O3)cc2)CC1` (configuration not stated), which Ki [10] is on record?
A: The Ki was 0.5 nM.

Q: With `COc1ccccc1N1CCN(CCNC(=O)c2ccccn2)CC1` as the molecule, how does the Ki [14] read?
A: Its Ki is 20 nM.

Q: What does the source list for `O=C(C1CCCCC1)N(CCN1CCN(c2ccccc2O)CC1)c1ccccn1`?
A: Ki [8]: 1.4 nM; Ki [14]: 364 nM

Q: For `COc1ccccc1N1CCN(CCN(c2cccc(F)n2)[11C](=O)C2CCCCC2)CC1`, which Drug uptake [15] is on record?
A: The Drug uptake was 8%.

Q: Which Ki [1] does the source give for `CC(=O)Nc1ccc2[nH]cc(C3CCN(C)CC3)c2n1` here?
A: The Ki was > 240 nM.

Q: What about the Ki [2] of the same molecule?
A: The Ki was > 240 nM.

Q: And the Ki [3]?
A: The Ki was > 240 nM.

Q: And the Ki [4]?
A: Its Ki is > 240 nM.

Q: And the Ki [5]?
A: The Ki was > 240 nM.

Q: And the Ki [6]?
A: The Ki was > 240 nM.

Q: And the Ki [7]?
A: The Ki was > 240 nM.

Q: With `O=S(=O)(c1ccccc1F)N1CCC[C@@H]1CCCN1CCN(c2ccc(Cl)cc2)CC1` as the molecule, how does the Ki [16] read?
A: Its Ki is 0.22 nM.

Q: Which Ki [14] does the source give for `COc1ccccc1N1CCN(CCCN/C(=N\C#N)c2ccccn2)CC1` here?
A: Its Ki is 20 nM.

Q: With `CN1CCN(c2cccc3c2C[C@H](NC(=O)c2ccc(OS(C)(=O)=O)cc2)CC3)CC1` as the molecule, how does the Ki [10] read?
A: Its Ki is 0.25 nM.

Q: For `O=C(NCCN1CCN(c2cccc(C(F)(F)F)n2)CC1)c1ccc(F)cc1`, which Ki [8] is on record?
A: Its Ki is 0.5 nM.

Q: Which Ratio [17] does the source give for `COc1ccccc1N1CCN(CCN(c2ccccn2)C(=O)[C@H]2CC[C@@H](C[18F])CC2)CC1` here?
A: Its Ratio is 0.58.

Q: Which Drug uptake [18] does the source give for `COc1cc(C(F)(F)F)c(OC)cc1CCNCc1ccccc1O[11CH3]` here?
A: Its Drug uptake is 0.82.

Q: Which Ki [16] does the source give for `CC1CCN(CCC[C@H]2CCCN2S(=O)(=O)c2ccc(F)cc2)CC1` here?
A: The Ki was 16 nM.

Q: With `CCCN(CCC)[C@@H]1CCc2cccc(SC)c2C1` as the molecule, how does the Ki [8] read?
A: The Ki was 0.6 nM.

Q: For `COc1c(Br)cc([18F])cc1CCNCc1ccccc1O`, which Ki [13] is on record?
A: Its Ki is 7.2 nM.

Q: For `CCc1cc(OC)cc(CCNCc2cccc(F)c2)c1OC`, which Ki [13] is on record?
A: The Ki was 2.4 nM.

Q: Which Ki [13] does the source give for `COc1c(Br)cc([18F])cc1CCNCc1cccc2c1OCO2` here?
A: Its Ki is 1.7 nM.

Q: Which Ratio [19] does the source give for `O=C(C1CCCCC1)N(CCN1CCN(c2ccccc2OCC[18F])CC1)c1ccccn1` here?
A: Its Ratio is 5.5.

Q: For `[11CH3]N1CCN(c2cccc3c2OC(C(=O)Nc2ccc(N4CCOCC4)cc2)CC3)CC1` (racemic), which Ki [10] is on record?
A: The Ki was 0.4 nM.

Q: Which Ki [8] does the source give for `COc1cccc2c1CCCC2CCCN1CCN(c2ccccc2)CC1` (configuration not stated) here?
A: Its Ki is 0.5 nM.

Q: With `COc1ccccc1N1CCN(CCN(C(=O)N2CCCCC2)c2cccc(F)n2)CC1` as the molecule, how does the Ki [9] read?
A: Its Ki is 0.51 nM.
